Several values for one entry are separate records, joined by “and”; a condition that tells them apart may be missing. Equal values may be shown once. Where a name gives a salt, the structure may show the parent alone.
Columns and labels:
[1] = Example 2 aqueous humor concentrations; assay type: in vivo, male New Zealand White rabbits; settings: for Average Peak Concentration, Aqueous Humor: solution
Protocol: (§1) To measure the concentration of Compound 1 in plasma and ocular tissues following topical ocular, subcutaneous, and intravitreal administration, New Zealand White rabbits were administered Compound 1, and plasma and ocular samples were collected at pre-determined time points. Compound 1 formulations were prepared fresh on each day of dosing.
(§2) Ocular tissue samples from both eyes of each animal were collected and weights were recorded. Plasma and ocular tissue sample concentrations of Compound 1 were determined by LC-MS/MS.
(§3) Animals were anesthetized for ocular (topical) and intravitreal dosing following the 12IA7 IACUC protocol. Each rabbit received a bolus dose of test formulation either via topical ocular administration 3 times daily on Days 1 and 2 (at 0, 6, and 12 hours), and once on Day 3 (at 0 hours) into both eyes; via intravitreal administration into both eyes once on Day 1 (at 0 hours); or via subcutaneous administration 2 times daily on Days 1 and 2 (at 0 and 8 hours) and once daily on Day 3 (at 0 hours). Doses were given within an approximately 1 hour window each day where applicable.
(§4) On Day 1, for intravitreal administration, or on Day 3, for topical ocular and subcutaneous administration, at the appropriate ocular tissue collection time points, animals were euthanized and both eyes were enucleated immediately. Following enucleation, each eye was rinsed with phosphate-buffered saline. Ocular tissue samples from both eyes of each animal were collected at predetermined time points and weights were recorded. All the samples were frozen immediately on dry ice, and stored at −60° C. to −80° C. pending bioanalysis.
(§5) An LC-MS/MS method was developed for the determination of Compound 1 in rabbit aqueous tissues (plasma, aqueous and vitreous humor) and solid ocular tissue samples. A pre-study standard curve was analyzed to determine the specificity, range, and lower limit of quantitation of the method. Plasma and tissue homogenate study samples were extracted and analyzed. All the samples were treated identically to the standards.
(§6) One eight-point standard curve was used in each analytical batch. To be accepted, each batch must have had at least five of eight standards with accuracy within ±20% of nominal, except at the lower limit of quantification (LLOQ), where ±25% was acceptable.

[2] = Example 2 iris, retina, choroid and cornea tissue concentrations; assay type: in vivo, male New Zealand White rabbits; settings: for Average / Conc. (ng/g) OD / Conc. (ng/g) OS / Conc. (ng/mL) OD / Conc. (ng/mL) OS: sodium salt; for Average Peak Concentration, Choroid / Average Peak Concentration, Cornea / Average Peak Concentration, Iris / Average Peak Concentration, Retina: solution
Protocol: as §1, §2, §3, §4, §5, §6

[3] = Group 1 (topical ocular 1.2 mg/eye), 0.5 hr
[4] = Group 1 (topical ocular 1.2 mg/eye), 1.0 hr
[5] = Group 1 (topical ocular 1.2 mg/eye), 2.0 hr
[6] = Group 1 (topical ocular 1.2 mg/eye), 4.0 hr
[7] = Group 1: topical ocular 0.70 mg/kg/dose
[8] = Group 2 (subcutaneous 5 mg/kg/dose, solution), 0.5 hr
[9] = Group 2 (subcutaneous 5 mg/kg/dose, solution), 1.0 hr
[10] = Group 2 (subcutaneous 5 mg/kg/dose, solution), 2.0 hr
[11] = Group 2 (subcutaneous 5 mg/kg/dose, solution), 4.0 hr, BLOQ = below 0.2 ng/mL
[12] = Group 2: subcutaneous 5 mg/kg/dose
[13] = Group 4 (intravitreal 2.5 mg/eye, solution), 6.0 hr
[14] = Group 4 (intravitreal 2.5 mg/eye, solution), 24 hr
[15] = Group 4 (intravitreal 2.5 mg/eye, solution), 48 hr
[16] = Group 4: intravitreal 1.55 mg/kg/dose
[17] = Choroid, 0.5 hr, subcutaneous 5 mg/kg/dose (Group 2)
[18] = Choroid, 1 hr, subcutaneous 5 mg/kg/dose (Group 2)
[19] = Choroid, 1 hr, topical ocular 1.2 mg/eye (Group 1)
[20] = Choroid, 2 hr, topical ocular 1.2 mg/eye (Group 1)
[21] = Choroid, 4 hr, subcutaneous 5 mg/kg/dose (Group 2)
[22] = Choroid, 4 hr, topical ocular 1.2 mg/eye (Group 1)
[23] = Cornea, 0.5 hr, subcutaneous 5 mg/kg/dose (Group 2)
[24] = Cornea, 0.5 hr, topical ocular 1.2 mg/eye (Group 1)
[25] = Cornea, 1 hr, subcutaneous 5 mg/kg/dose (Group 2)
[26] = Cornea, 1 hr, topical ocular 1.2 mg/eye (Group 1)
[27] = Cornea, 2 hr, subcutaneous 5 mg/kg/dose (Group 2)
[28] = Cornea, 4 hr, subcutaneous 5 mg/kg/dose (Group 2)
[29] = Cornea, 4 hr, topical ocular 1.2 mg/eye (Group 1)
[30] = Iris, 0.5 hr, subcutaneous 5 mg/kg/dose (Group 2)
[31] = Iris, 0.5 hr, topical ocular 1.2 mg/eye (Group 1)
[32] = Iris, 1 hr, subcutaneous 5 mg/kg/dose (Group 2)

COC(=O)N[C@@H](Cc1ccccc1)C(=O)N[C@@H](Cc1ccc(NS(=O)(=O)O)cc1)c1csc(-c2cccs2)n1 [Compound 1 sodium salt]
aqueous humor Average Conc. [1, 3]: 45.8 ng/g
aqueous humor Conc. OS [1, 3]: 1.78 ng/mL
aqueous humor Average Conc. [1, 4]: 15.0 ng/g
aqueous humor Conc. OD [1, 4]: 4.03 ng/mL and 3.05 ng/mL
aqueous humor Conc. OS [1, 4]: 3.55 ng/mL
aqueous humor Average Conc. [1, 5]: 31.6 ng/g
aqueous humor Conc. OD [1, 5]: 2.46 ng/mL
aqueous humor Conc. OS [1, 5]: 14.5 ng/mL and 15.8 ng/mL
aqueous humor Average Conc. [1, 6]: 8.24 ng/g
aqueous humor Conc. OD [1, 6]: 5.48 ng/mL and 7.78 ng/mL
Average Peak Concentration, Aqueous Humor [1, 7]: 45.8 ng/g
aqueous humor Average Conc. [1, 8]: 26.1 ng/g
aqueous humor Conc. OD [1, 8]: 23.5 ng/mL and 18.0 ng/mL
aqueous humor Conc. OS [1, 8]: 24.6 ng/mL and 38.2 ng/mL
aqueous humor Average Conc. [1, 9]: 3.30 ng/g
aqueous humor Conc. OD [1, 9]: 4.51 ng/mL and 3.22 ng/mL
aqueous humor Conc. OS [1, 9]: 1.84 ng/mL and 3.63 ng/mL
aqueous humor Average Conc. [1, 10]: 0.72 ng/g
aqueous humor Conc. OD [1, 10]: 0.581 ng/mL and 0.453 ng/mL
aqueous humor Conc. OS [1, 10]: 0.498 ng/mL
aqueous humor Conc. OD [1, 11]: BLOQ
aqueous humor Conc. OS [1, 11]: BLOQ
Average Peak Concentration, Aqueous Humor [1, 12]: 26.1 ng/g
aqueous humor Average Conc. [1, 13]: 80575 ng/g
aqueous humor Conc. OD [1, 13]: 90600 ng/mL and 75300 ng/mL
aqueous humor Conc. OS [1, 13]: 77100 ng/mL and 79300 ng/mL
aqueous humor Average Conc. [1, 14]: 9000 ng/g
aqueous humor Conc. OD [1, 14]: 4700 ng/mL
aqueous humor Conc. OS [1, 14]: 5190 ng/mL and 6810 ng/mL
aqueous humor Average Conc. [1, 15]: 1963 ng/g
aqueous humor Conc. OD [1, 15]: 2040 ng/mL and 2330 ng/mL
aqueous humor Conc. OS [1, 15]: 1510 ng/mL and 1970 ng/mL
aqueous humor Average Conc. ([1]; Group 4 (intravitreal 2.5 mg/eye, solution), 72 hr): 34.5 ng/g
Average Peak Concentration, Aqueous Humor [1, 16]: 80575 ng/g
aqueous humor concentrations vs free acid (FIG. 8) ([1]; intravitreal administration, up to forty-eight hours post-administration): higher aqueous humor concentrations
aqueous humor concentrations vs free acid (FIG. 7) ([1]; subcutaneous administration, early time points): increased aqueous humor concentrations as compared to the free acid
aqueous humor concentrations (FIG. 6) ([1]; topical ocular administration, over four hours): below 50 ng/g
Average [2, 17]: 266 ng/g
Conc. (ng/g) OD [2, 17]: 264 ng/g and 282 ng/g
Conc. (ng/g) OS [2, 17]: 282 ng/g and 235 ng/g
Conc. (ng/mL) OD [2, 17]: 24.0 ng/mL and 25.6 ng/mL
Conc. (ng/mL) OS [2, 17]: 25.6 ng/mL and 21.4 ng/mL
Average ([2]; Choroid, 0.5 hr, topical ocular 1.2 mg/eye (Group 1)): 57.7 ng/g
Average [2, 18]: 200 ng/g
Conc. (ng/g) OD [2, 18]: 320 ng/g and 211 ng/g
Conc. (ng/g) OS [2, 18]: 144 ng/g and 125 ng/g
Conc. (ng/mL) OD [2, 18]: 29.1 ng/mL and 19.2 ng/mL
Conc. (ng/mL) OS [2, 18]: 13.1 ng/mL and 11.4 ng/mL
Average [2, 19]: 32.2 ng/g
Conc. (ng/g) OD [2, 19]: 61.2 ng/g and 31.8 ng/g
Conc. (ng/g) OS [2, 19]: 16.5 ng/g and 19.5 ng/g
Conc. (ng/mL) OD [2, 19]: 5.56 ng/mL and 2.89 ng/mL
Conc. (ng/mL) OS [2, 19]: 1.50 ng/mL and 1.77 ng/mL
Average ([2]; Choroid, 2 hr, subcutaneous 5 mg/kg/dose (Group 2)): 68.8 ng/g
Average [2, 20]: 59.2 ng/g
Conc. (ng/g) OS [2, 20]: 43.9 ng/g and 64.5 ng/g
Conc. (ng/mL) OS [2, 20]: 3.99 ng/mL and 5.86 ng/mL
Average [2, 21]: 15.5 ng/g
Conc. (ng/g) OD [2, 21]: 18.7 ng/g and 16.5 ng/g
Conc. (ng/g) OS [2, 21]: 13.4 ng/g
Conc. (ng/mL) OD [2, 21]: 1.70 ng/mL and 1.50 ng/mL
Conc. (ng/mL) OS [2, 21]: 1.22 ng/mL
Average [2, 22]: 165 ng/g
Conc. (ng/g) OD [2, 22]: 27.8 ng/g and 52.1 ng/g
Conc. (ng/g) OS [2, 22]: 81.1 ng/g
Conc. (ng/mL) OD [2, 22]: 2.53 ng/mL and 4.74 ng/mL
Average [2, 23]: 19.4 ng/g
Conc. (ng/g) OS [2, 23]: 27.1 ng/g and 21.3 ng/g
Conc. (ng/mL) OS [2, 23]: 2.46 ng/mL and 1.94 ng/mL
Average [2, 24]: 1015 ng/g
Conc. (ng/g) OD [2, 24]: 240 ng/g and 370 ng/g
Conc. (ng/g) OS [2, 24]: 427 ng/g
Conc. (ng/mL) OD [2, 24]: 21.8 ng/mL and 33.6 ng/mL
Average [2, 25]: 31.1 ng/g
Conc. (ng/g) OD [2, 25]: 26.1 ng/g and 23.4 ng/g
Conc. (ng/g) OS [2, 25]: 25.3 ng/g
Conc. (ng/mL) OD [2, 25]: 2.37 ng/mL and 2.13 ng/mL
Conc. (ng/mL) OS [2, 25]: 4.52 ng/mL and 2.30 ng/mL
Average [2, 26]: 548 ng/g
Conc. (ng/g) OS [2, 26]: 482 ng/g and 532 ng/g
Conc. (ng/mL) OS [2, 26]: 43.8 ng/mL and 48.4 ng/mL
Average [2, 27]: 9.45 ng/g
Conc. (ng/g) OD [2, 27]: 11.7 ng/g
Conc. (ng/g) OS [2, 27]: 11.0 ng/g
Average ([2]; Cornea, 2 hr, topical ocular 1.2 mg/eye (Group 1)): 1073 ng/g
Average [2, 28]: 10.1 ng/g
Conc. (ng/g) OD [2, 28]: 8.27 ng/g and 9.60 ng/g
Conc. (ng/g) OS [2, 28]: 8.62 ng/g and 13.9 ng/g
Conc. (ng/mL) OD [2, 28]: 0.752 ng/mL and 0.873 ng/mL
Conc. (ng/mL) OS [2, 28]: 0.784 ng/mL and 1.26 ng/mL
Average [2, 29]: 534 ng/g
Conc. (ng/g) OD [2, 29]: 493 ng/g and 362 ng/g
Conc. (ng/mL) OD [2, 29]: 44.8 ng/mL and 32.9 ng/mL
Average Peak Concentration, Choroid [2, 7]: 57.7 ng/g
Average Peak Concentration, Cornea [2, 7]: 1015 ng/g
Average Peak Concentration, Iris [2, 7]: 24.3 ng/g
Average Peak Concentration, Retina [2, 7]: 25.6 ng/g
Average Peak Concentration, Choroid [2, 12]: 266 ng/g
Average Peak Concentration, Cornea [2, 12]: 19.4 ng/g
Average Peak Concentration, Iris [2, 12]: 459 ng/g
Average Peak Concentration, Retina [2, 12]: 40.5 ng/g
Average Peak Concentration, Choroid [2, 16]: 947375 ng/g
Average Peak Concentration, Cornea [2, 16]: 71445 ng/g
Average Peak Concentration, Iris [2, 16]: 351725 ng/g
Average Peak Concentration, Retina [2, 16]: 774400 ng/g
Average [2, 30]: 459 ng/g
Conc. (ng/g) OD [2, 30]: 305 ng/g and 454 ng/g
Conc. (ng/mL) OD [2, 30]: 27.7 ng/mL and 41.3 ng/mL
Average [2, 31]: 24.3 ng/g
Conc. (ng/g) OD [2, 31]: 28.1 ng/g and 18.7 ng/g
Conc. (ng/g) OS [2, 31]: 17.8 ng/g and 32.5 ng/g
Conc. (ng/mL) OD [2, 31]: 2.55 ng/mL and 1.7 ng/mL
Conc. (ng/mL) OS [2, 31]: 1.62 ng/mL and 2.95 ng/mL
Average [2, 32]: 94.7 ng/g
Conc. (ng/g) OD [2, 32]: 125 ng/g and 99.2 ng/g
Conc. (ng/g) OS [2, 32]: 97.6 ng/g and 56.4 ng/g
Conc. (ng/mL) OD [2, 32]: 11.4 ng/mL and 9.02 ng/mL
Conc. (ng/mL) OS [2, 32]: 8.87 ng/mL and 5.13 ng/mL
Average ([2]; Iris, 1 hr, topical ocular 1.2 mg/eye (Group 1)): 55.2 ng/g

Source: US10952992B2, “Methods of treating intraocular pressure with activators of Tie-2” (Aerpio Pharmaceuticals, Inc., priority 2015, dated 2021)
